This is an account of results in patent US8557959B2, “Allele and isotope-specific intervention on MHC class II molecules associated with autoimmune diseases by means of peptides” (Merck Serono S.A., priority 2007, dated 2013).

Where two headings read alike, the source gives them in different places.

One assay concerns the target T1, HLA-DR2b molecules (Homo sapiens, UniProt P01903+P01911).
T1 construct: made in house; host or cells: L cells co-transfected with HLA-DRA and HLA-DRB1*1501
As to the kind of experiment: competitive ELISA (dissociation-enhanced lanthanide fluoroimmunoassay) with biotinylated CLIP 97-120 as tracer on purified DR2b molecules. Type of assay: binding. The text has this: DR2b molecules were purified from L cells that had been co-transfected with HLA-DRA and HLA-DRB1*1501, by affinity chromatography using the HLA-DR-specific L243 antibody, as described in Weissert et al. (2001), MHC class II-regulated central nervous system autoaggression and T cell responses in peripheral lymphoid tissues are dissociated in myelin oligodendrocyte glycoprotein-induced experimental autoimmune encephalomyelitits, J. Immunol. 166, 7588-7599. The above publication is incorporated into the present application by reference. The binding assays were performed with a competitive ELISA based on a dissociation-enhanced lanthanide fluoroimmunoassay (Wallac, Turku, Finland). For the competitive ELISA, a 50 nM solution of DR2b molecules was incubated for 48 hours at 37° C. with 50 nM biotinylated CLIP 97-120 in the presence of 250 nM acetylated nonapeptide amide sublibrary or with various concentrations of competitor peptides ranging from 1 nM to 100 μM. The IC50 of a peptide was defined as the concentration of peptide that was required for a 50% inhibition of the binding of the tracer peptide. […]

Assay [1] has as its system 08073 T cell hybridoma co-incubated with HLA-DR2b-transfected L466 cells. Nature of the assay: blocking of MBP 85-99 induced IL-2 secretion by high-affinity ligands for DR2b. It counts as cell-based, mouse. Conditions: 1 μg/ml MBP 85-99, 10 μg/ml peptide, 24 hours; FIG. 1. The method, then:
L466 cells and 08073 cells, which were transfected with HLA-DR2b, were co-incubated in the presence of 1 μg/ml MBP 85-99 and 10 μg/ml of various HLA-DR2b peptides; “kein Komp.”=no peptide according to the invention in the batch. After 24 hours the supernatant was collected and the amount of IL-2 present in the supernatant was measured in a mouse-specific IL-2-ELISA.
L466 cells and 08073 cells that were transfected with HLA-DR2b were co-incubated in the presence of 1 μg/ml MBP 85-99 and 10 μg/ml of the HuPb28-variants. After 24 hours the supernatant was collected and the amount of IL-2 present in the supernatant was measured using a mouse-specific IL-2-ELISA.
A T cell hybridoma (08073), which expresses the T cell receptor that is specific for MBP 85-99, which is presented by HLA-DR2b, was provided. After stimulation with MBP 85-99, presented by HLA-DR2b-transfected L466 cells, the 08073 cells secreted significant amounts of IL-2. 5×10^4 08073 cells were co-incubated for 24 hours with 5×10^4 HLA-DR2b-transfected L466 cells in RPMI medium (Invitrogen, Pailey, United Kingdom)/2% FCS (PAA, Linz, Austria)/100 U/ml penicillin, 100 μg/ml streptomycin, 2 mM glutamine (all from Invitrogen) in the presence of 1 μg/ml […] with or without high-affinity peptides (10 μg/ml). The amounts of IL-2 that were secreted in the supernatant were detected using a mouse-IL-2-specific ELISA (BD Biosciences Pharmingen, San Diego, Calif., United States of America).

The subject of the next assay is HLA-DR2b-transgenic mice. As to the kind of experiment: MOG 35-55-induced EAE, co-immunization experiment. Type of assay: in vivo, mouse. Here is the method: DR2b mice were immunized with the MOG 35-55 peptide in CFA (n=8) or co-immunized with MOG 35-55 and the HuPb11 peptide (SEQ ID No. 17) (n=8) or MOG 35-55 and HuPb28 peptide (SEQ ID No. 9) (n=9). Pertussis toxin (PTX) was administered i.p. on days 0 and 2. The mice were measured daily for EAE and weighed.
The following classifications were used: 0, no disease; 1, weakness or paralysis of the tail; 2, weakness of the hind legs; 3, paralysis of the hind legs; 4, paralysis of the front and hind legs; 5, moribund or death caused by disease.

[2] abbreviates: acetylated nonapeptide amides, 48 hours at 37° C., 50 nM DR2b, 50 nM biotinylated CLIP 97-120, read-out: IC50 for binding to HLA-DR2b molecules.

What is called IC50 is the point on the concentration scale where inhibition reaches its midpoint. Regarding Ac-DIYWYSSWP-NH2 [HuPb32, DIYWYSSWP], on HLA-DR2b molecules (setting [2]), the concentration for half-maximal inhibition (IC50) was under 1 nM. The “IL-2 secretion after stimulation of 08073 cells with MBP 85-99” value (shortened to “IL-2 secretion after stimulation”) in assay [1] is “significantly reduce IL-2 secretion”.

On to Ac-FILIYSNLF-NH2 [HuPb29, FILIYSNLF], for which, at HLA-DR2b molecules (setting [2]), the half-inhibitory concentration (IC50) amounted to 2 nM.

As to Ac-GPPERLEFR-NH2 [HuPb19, GPPERLEFR], the IC50 at HLA-DR2b molecules (setting [2]) was over 100000 nM. The “IL-2 secretion after stimulation” value in assay [1] was “did not show any effect”.

Consider Ac-KGESGFRDR-NH2 [HuPb17, KGESGFRDR], for which the IC50 at HLA-DR2b molecules was over 100000 nM. The “IL-2 secretion after stimulation” value in assay [1] was “did not show any effect”.

In the case of Ac-LILWYSSWL-NH2 [HuPb24, LILWYSSWL], on HLA-DR2b molecules (setting [2]), the IC50 worked out at 2 nM.

As to Ac-LILWYSSWP-NH2 [HuPb26, LILWYSSWP], the 50% inhibitory concentration (IC50) on HLA-DR2b molecules (setting [2]) came out at 1 nM.

For the substance Ac-LILYYYYYL-NH2 [HuPb23, LILYYYYYL], at HLA-DR2b molecules, the “affinity for HLA-DR2b in words” value is listed as “moderate affinity”.

Ac-LIYWYSSWL-NH2 [HuPb22, LIYWYSSWL]: the concentration for half-maximal inhibition (IC50) on HLA-DR2b molecules (setting [2]) turned out to be 2 nM.

Consider Ac-LLYWYSSWP-NH2 [HuPb27, LLYWYSSWP], for which, at HLA-DR2b molecules (setting [2]), the half-maximal inhibitory concentration (IC50) is under 1 nM. Besides, in assay [1], the “IL-2 secretion after stimulation” value is recorded as “only a slight reduction in IL-2 secretion”.

Ac-MIDWYSSWP-NH2 [HuPb34, MIDWYSSWP]: the IC50 at HLA-DR2b molecules (setting [2]) worked out at 1 nM.

For the substance Ac-MIYWYNSWL-NH2 [HuPb31, MIYWYNSWL], at HLA-DR2b molecules (setting [2]), the half-inhibitory concentration (IC50) was under 1 nM. For the same substance, the “IL-2 secretion after stimulation” value in assay [1] is on record as “significantly reduce IL-2 secretion”.

Consider Ac-MIYWYSNWL-NH2 [HuPb30, MIYWYSNWL], for which the IC50 on HLA-DR2b molecules (setting [2]) was under 1 nM. In addition, the “IL-2 secretion after stimulation” value in assay [1] is on record as “only a slight reduction in IL-2 secretion”.

With Ac-MIYWYSSWD-NH2 [HuPb33, MIYWYSSWD], the IC50 on HLA-DR2b molecules (setting [2]) is 1 nM.

For Ac-MIYWYSSWI-NH2 [HuPb21, MIYWYSSWI], the 50% inhibitory concentration (IC50) on HLA-DR2b molecules (setting [2]) was found to be 1 nM.

On to Ac-MIYWYSSWL-NH2 [HuPb20, MIYWYSSWL], for which the concentration for half-maximal inhibition (IC50) at HLA-DR2b molecules (setting [2]) came to 1 nM.

Regarding Ac-MLIYYSSYL-NH2 [HuPb28, MLIYYSSYL], the “clinical EAE symptoms” value in the assay with HLA-DR2b-transgenic mice (co-administration of 200 μg peptide with 300 μg MOG 35-55 in CFA at immunization) is given as “reduced the clinical EAE symptoms”. The EAE sum value result with HLA-DR2b-transgenic mice (co-immunized with MOG 35-55 and peptide, n=9, p<0.05, FIG. 3) was “reduction in the sum value”. The 50% inhibitory concentration (IC50) at HLA-DR2b molecules (setting [2]) was under 1 nM. Moreover, the “IL-2 secretion after stimulation” value in assay [1] is reported as “significantly reduce IL-2 secretion”.

As for Ac-PYEAQELHE-NH2 [HuPb14, PYEAQELHE], the IC50 at HLA-DR2b molecules (setting [2]) was over 100000 nM.

Take Ac-WGLPEHLER-NH2 [HuPb11, WGLPEHLER]: the IC50 on HLA-DR2b molecules (setting [2]) was over 100000 nM.
